Assay results from US9388179B2, “N-substituted indazole sulfonamide compounds with selective activity in voltage-gated sodium channels” (Merck Sharp & Dohme Corp., priority 2012, dated 2016).

Tests used:
Type in all cases: cell-based
[1] = molecular target: T1, human Nav1.5 channels stably expressed in HEK 293 cells (Homo sapiens, UniProt Q14524); assay: IonWorks Quattro automated patch-clamp, inactivated state block; conditions: IonWorks technique
T1 construct: expressed in transfected cells; host or cells: HEK 293
T1 sequence (Q14524 whole entry): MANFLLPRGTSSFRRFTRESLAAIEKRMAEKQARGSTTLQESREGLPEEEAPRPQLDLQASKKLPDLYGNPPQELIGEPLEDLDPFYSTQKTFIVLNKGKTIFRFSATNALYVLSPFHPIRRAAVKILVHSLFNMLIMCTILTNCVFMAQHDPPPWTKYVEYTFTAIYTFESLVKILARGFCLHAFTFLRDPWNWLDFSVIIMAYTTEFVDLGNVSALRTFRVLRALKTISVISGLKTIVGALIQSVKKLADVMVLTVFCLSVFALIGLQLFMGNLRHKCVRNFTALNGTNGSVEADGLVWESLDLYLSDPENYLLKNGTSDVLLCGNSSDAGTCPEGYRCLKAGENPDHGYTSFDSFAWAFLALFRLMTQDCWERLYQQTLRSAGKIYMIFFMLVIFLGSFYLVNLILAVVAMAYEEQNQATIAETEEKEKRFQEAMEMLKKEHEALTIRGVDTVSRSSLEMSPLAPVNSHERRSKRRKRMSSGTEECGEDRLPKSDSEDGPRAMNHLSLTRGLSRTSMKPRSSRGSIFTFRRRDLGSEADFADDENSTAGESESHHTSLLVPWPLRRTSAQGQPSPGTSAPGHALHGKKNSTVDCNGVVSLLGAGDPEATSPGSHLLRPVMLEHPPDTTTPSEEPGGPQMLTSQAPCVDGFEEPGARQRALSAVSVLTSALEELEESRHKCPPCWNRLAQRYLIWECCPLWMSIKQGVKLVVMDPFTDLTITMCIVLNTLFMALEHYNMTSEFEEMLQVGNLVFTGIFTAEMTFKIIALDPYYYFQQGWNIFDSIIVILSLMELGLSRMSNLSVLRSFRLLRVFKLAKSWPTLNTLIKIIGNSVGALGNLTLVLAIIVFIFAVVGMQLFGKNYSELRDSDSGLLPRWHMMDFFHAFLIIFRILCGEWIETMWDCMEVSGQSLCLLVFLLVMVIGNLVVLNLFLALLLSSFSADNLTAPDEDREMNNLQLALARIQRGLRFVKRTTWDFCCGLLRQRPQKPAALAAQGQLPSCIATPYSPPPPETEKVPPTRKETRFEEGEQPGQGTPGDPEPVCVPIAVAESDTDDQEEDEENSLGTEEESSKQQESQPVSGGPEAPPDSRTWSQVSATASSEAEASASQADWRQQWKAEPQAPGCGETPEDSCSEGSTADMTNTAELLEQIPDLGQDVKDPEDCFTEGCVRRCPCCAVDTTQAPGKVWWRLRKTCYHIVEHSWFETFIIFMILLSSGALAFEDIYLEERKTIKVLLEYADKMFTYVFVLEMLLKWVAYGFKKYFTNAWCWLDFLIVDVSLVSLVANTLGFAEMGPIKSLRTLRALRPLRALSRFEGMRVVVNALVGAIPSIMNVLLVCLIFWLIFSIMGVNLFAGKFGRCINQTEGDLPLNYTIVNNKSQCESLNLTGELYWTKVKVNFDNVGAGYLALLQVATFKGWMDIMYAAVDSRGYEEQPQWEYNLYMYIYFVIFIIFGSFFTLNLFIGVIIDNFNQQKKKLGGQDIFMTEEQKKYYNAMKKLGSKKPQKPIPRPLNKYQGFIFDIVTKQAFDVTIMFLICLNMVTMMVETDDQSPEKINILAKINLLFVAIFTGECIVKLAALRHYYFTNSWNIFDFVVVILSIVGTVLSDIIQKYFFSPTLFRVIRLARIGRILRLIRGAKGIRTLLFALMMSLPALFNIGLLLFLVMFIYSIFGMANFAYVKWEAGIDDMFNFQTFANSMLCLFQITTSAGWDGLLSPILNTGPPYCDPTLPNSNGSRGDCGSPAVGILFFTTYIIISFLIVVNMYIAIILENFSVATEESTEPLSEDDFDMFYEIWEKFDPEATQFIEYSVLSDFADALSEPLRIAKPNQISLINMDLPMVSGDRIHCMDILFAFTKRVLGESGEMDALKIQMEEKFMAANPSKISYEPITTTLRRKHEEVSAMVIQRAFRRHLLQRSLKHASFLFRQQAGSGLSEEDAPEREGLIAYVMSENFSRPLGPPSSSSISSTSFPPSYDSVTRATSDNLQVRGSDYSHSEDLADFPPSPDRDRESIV
Description: (§1) For all electrophysiology experiments, offline analysis was used to correct for current rundown and to determine percent inhibition as a function of drug concentration. IC50 values were determined by fitting to the Hill equation.
(§2) Cell Based Assays for Nav 1.7 and Nav 1.5 Activity
(§3) Compounds were tested on human Nav1.7 and Nav1.5 channels stably expressed in HEK 293 cells. […] Cells were sealed on a planar substrate using the Population Patch […] (PPC) technology. Electrical access was obtained using both nystatin and amphotericin. A double-pulse protocol was used for the determination of IC50 values for inactivated state block. Nav1.7 and Nav1.5 expressing cells were voltage clamped at −100 mV and −110 mV, respectively. A depolarizing prepulse to −10 mV (Nav1.7) or −30 mV (Nav1.5) for 1000 ms followed by a 10 ms repolarization to −100 mV (Nav1.7) or −110 mV (Nav1.5) was given to generate fractional channel inactivation of 50%, followed by a 10 ms test pulse to −10 mV (Nav1.7) or −30 mV (Nav1.5) to measure peak current in control conditions and after compound addition. The following recording solutions were used (mM). External: 150 NaCl, 2 CaCl2, 5 KCl, 1 MgCl2, 10 HEPES, 12 Dextrose; internal: 120 CsF, 30 CsCl, 10 EGTA, 5 HEPES, 5 NaF, 2 MgCl2.

[2] = molecular target: T2, human Nav1.7 channels stably expressed in HEK 293 cells (Homo sapiens, UniProt Q15858); assay: as above; conditions: IonWorks technique; read-out: Nav 1.7 potency
T2 construct: expressed in transfected cells; host or cells: HEK 293
T2 sequence (Q15858 whole entry): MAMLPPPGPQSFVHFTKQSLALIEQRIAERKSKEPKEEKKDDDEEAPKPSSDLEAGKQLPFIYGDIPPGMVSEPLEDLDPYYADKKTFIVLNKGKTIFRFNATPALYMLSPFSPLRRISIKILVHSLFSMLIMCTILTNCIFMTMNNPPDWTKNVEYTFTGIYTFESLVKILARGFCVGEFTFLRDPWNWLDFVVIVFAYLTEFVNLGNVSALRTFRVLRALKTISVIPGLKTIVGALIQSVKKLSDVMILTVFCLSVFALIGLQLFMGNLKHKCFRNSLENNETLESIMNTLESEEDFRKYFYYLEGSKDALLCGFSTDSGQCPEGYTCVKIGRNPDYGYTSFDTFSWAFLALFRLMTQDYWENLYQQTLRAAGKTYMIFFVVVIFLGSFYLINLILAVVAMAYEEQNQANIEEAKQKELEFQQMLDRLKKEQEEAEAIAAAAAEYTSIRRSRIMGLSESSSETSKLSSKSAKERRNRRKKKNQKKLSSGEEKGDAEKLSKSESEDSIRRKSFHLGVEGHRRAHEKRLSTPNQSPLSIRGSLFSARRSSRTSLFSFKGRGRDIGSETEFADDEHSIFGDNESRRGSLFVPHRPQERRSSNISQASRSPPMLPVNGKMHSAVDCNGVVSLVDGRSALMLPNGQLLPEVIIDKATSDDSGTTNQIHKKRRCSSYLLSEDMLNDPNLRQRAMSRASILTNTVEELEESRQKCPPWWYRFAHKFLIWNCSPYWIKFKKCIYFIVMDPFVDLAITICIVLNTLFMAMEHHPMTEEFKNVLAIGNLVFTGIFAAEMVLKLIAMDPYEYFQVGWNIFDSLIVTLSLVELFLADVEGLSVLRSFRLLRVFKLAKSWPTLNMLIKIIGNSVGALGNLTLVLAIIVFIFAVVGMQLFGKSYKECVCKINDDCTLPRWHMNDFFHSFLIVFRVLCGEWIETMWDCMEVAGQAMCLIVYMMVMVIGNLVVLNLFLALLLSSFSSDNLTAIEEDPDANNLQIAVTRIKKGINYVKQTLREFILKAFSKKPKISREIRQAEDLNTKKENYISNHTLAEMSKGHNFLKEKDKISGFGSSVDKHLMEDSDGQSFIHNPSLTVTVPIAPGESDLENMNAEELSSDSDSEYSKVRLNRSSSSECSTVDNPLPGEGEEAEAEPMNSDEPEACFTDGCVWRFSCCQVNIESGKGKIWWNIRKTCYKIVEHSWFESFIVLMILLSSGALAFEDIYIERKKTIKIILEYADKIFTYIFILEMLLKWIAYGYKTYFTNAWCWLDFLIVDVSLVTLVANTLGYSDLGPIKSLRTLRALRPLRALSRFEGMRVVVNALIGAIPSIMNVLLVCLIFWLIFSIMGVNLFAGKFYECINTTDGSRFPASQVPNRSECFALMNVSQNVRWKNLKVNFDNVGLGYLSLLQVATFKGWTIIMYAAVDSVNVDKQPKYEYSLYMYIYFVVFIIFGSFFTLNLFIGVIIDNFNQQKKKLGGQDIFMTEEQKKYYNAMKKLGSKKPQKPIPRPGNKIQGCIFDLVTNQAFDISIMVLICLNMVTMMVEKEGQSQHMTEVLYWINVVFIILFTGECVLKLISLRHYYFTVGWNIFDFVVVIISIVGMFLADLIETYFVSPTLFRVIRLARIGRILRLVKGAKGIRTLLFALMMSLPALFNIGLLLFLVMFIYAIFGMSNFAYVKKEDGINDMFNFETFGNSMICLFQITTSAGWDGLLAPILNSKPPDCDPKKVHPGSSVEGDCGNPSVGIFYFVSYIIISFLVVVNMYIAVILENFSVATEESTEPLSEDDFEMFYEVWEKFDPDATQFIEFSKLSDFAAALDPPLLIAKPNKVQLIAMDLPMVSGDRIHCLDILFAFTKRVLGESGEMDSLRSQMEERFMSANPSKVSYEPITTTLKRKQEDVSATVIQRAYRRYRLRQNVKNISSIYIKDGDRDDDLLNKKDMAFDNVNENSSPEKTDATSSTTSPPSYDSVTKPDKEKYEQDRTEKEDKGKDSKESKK
Description: as §1, §2, §3

[3] = molecular target: T1, human Nav1.5 channels stably expressed in HEK 293 cells; assay: PatchXpress 7000 automated patch-clamp, inactivated state block; conditions: PatchXpress technique
Description: as §1
(§4) Sodium Current Measurements on the PatchXpress 7000®:
(§5) To measure inactivated state block of sodium channels, test compounds were characterized in an automated PatchXpress® assay (Molecular Devices) using a double-pulse protocol on human Nav1.7 and Nav1.5 channels stably expressed in HEK 293 cells. Cells were held at a potential 20 mV negative to V0.5 inact. An 8000 ms pre-pulse 7 mV positive to V0.5 inact was given followed by a hyperpolarizing 2 ms pulse to −120 mV and a 20 ms test pulse to −20 mV. Protocol was applied to cells in the absence, presence of compound and after washout. The temperature of PatchXpress instruments was maintained at 22° C. The following recording solutions were used. Internal solution (mM): 30 CsCl, 5 HEPES, 10 EGTA, 120 CsF, 5 NaF, 2 MgCl2. External solution (mM): 120 NMDG, 40 NaCl, 1 KCl, 0.5 MgCl2, 5 HEPES, 2.7 CaCl2.

[4] = molecular target: T2, human Nav1.7 channels stably expressed in HEK 293 cells; assay: as above; conditions: PatchXpress technique; read-out: Nav 1.7 potency
Description: as §1, §4, §5

SMILES | IC50 [2] | IC50 [4] | Ratio 1.5:1.7 = Nav 1.5 potency (nM)/Nav1.7 potency (nM) [1] | Ratio 1.5:1.7 = Nav 1.5 potency (nM)/Nav1.7 potency (nM) [3]
NC1CCc2cccc(Cn3ncc4cc(S(=O)(=O)Nc5ncns5)c(F)cc43)c2C1 (single isomer, unassigned) [Ex-13, (R or S)-1-((7-amino-5,6,7,8-tetrahydronaphthalen-1-yl)methyl)-6-fluoro-N-(1,2,4-thiadiazol-5-yl)-1H-indazole-5-sulfonamide] | 6 nM | 7 nM | 5406 | 2275
O=S(=O)(Nc1ncns1)c1cc2cnn(Cc3cccc4c3CNCC4)c2cc1F [Ex-1, 6-fluoro-1-((1,2,3,4-tetrahydroisoquinolin-8-yl)methyl)-N-(1,2,4-thiadiazol-5-yl)-1H-indazole-5-sulfonamide] | 106 nM | 153 nM | 311 | 310
O=S(=O)(Nc1nccs1)c1cc2cnn(Cc3cccc4c3CNCC4)c2cc1F [Ex-2, 6-fluoro-1-((1,2,3,4-tetrahydroisoquinolin-8-yl)methyl)-N-(thiazol-2-yl)-1H-indazole-5-sulfonamide] | 25 nM | 20 nM | 1200 | 2025
O=S(=O)(Nc1ncc(Cl)s1)c1cc2cnn(Cc3cccc4c3CNCC4)c2cc1F [Ex-3, N-(5-chlorothiazol-2-yl)-6-fluoro-1-((1,2,3,4-tetrahydroisoquinolin-8-yl)methyl)-1H-indazole-5-sulfonamide] | 328 nM | 52 nM | 91 | 636
O=S(=O)(Nc1cccc(F)n1)c1cc2cnn(Cc3cccc4c3CNCC4)c2cc1F [Ex-4, 6-fluoro-N-(6-fluoropyridin-2-yl)-1-((1,2,3,4-tetrahydroisoquinolin-8-yl)methyl)-1H-indazole-5-sulfonamide] | 519 nM | 855 nM | 58 | 64
NC/C=C/c1ccccc1Cn1ncc2cc(S(=O)(=O)Nc3ncns3)c(F)cc21 [Ex-5, (E)-1-(2-(3-aminoprop-1-en-1-yl)benzyl)-6-fluoro-N-(1,2,4-thiadiazol-5-yl)-1H-indazole-5-sulfonamide] | 34 nM | 54 nM | 963 | 560
C[C@H](c1cccc2c1CNCC2)n1ncc2cc(S(=O)(=O)Nc3ncns3)c(F)cc21 [Ex-6, (R)-6-fluoro-1-(1-(1,2,3,4-tetrahydroisoquinolin-8-yl)ethyl)-N-(1,2,4-thiadiazol-5-yl)-1H-indazole-5-sulfonamide] | 21 nM | 94 nM | 1066 | 320
O=S(=O)(Nc1ncns1)c1cc2cnn(Cc3ccccc3I)c2cc1F [Ex-7, 6-fluoro-1-(2-iodobenzyl)-N-1,2,4-thiadiazol-5-yl-1H-indazole-5-sulfonamide] | 340 nM |  | 19 | 
CN(C)CCNC(=O)c1cccc(-c2ccccc2Cn2ncc3cc(S(=O)(=O)Nc4ncns4)c(F)cc32)c1 [Ex-8, N-[2-(dimethylamino)ethyl]-2′-{[6-fluoro-5-(1,2,4-thiadiazol-5-ylsulfamoyl)-1H-indazol-1-yl]methyl}biphenyl-3-carboxamide] | 856 nM | 1130 nM | 39 | 27
C[C@H](c1ccccc1)n1ncc2cc(S(=O)(=O)Nc3ncns3)c(F)cc21 [Ex-9, 6-fluoro-1-[(1R)-1-phenylethyl]-N-1,2,4-thiadiazol-5-yl-1H-indazole-5-sulfonamide] | 1040 nM | 410 nM | 27 | 65
O=S(=O)(Nc1ncns1)c1cc2cnn(Cc3ccccc3-c3cccc4c3CCNC4)c2cc1F [Ex-10, 6-fluoro-1-[2-(1,2,3,4-tetrahydroisoquinolin-5-yl)benzyl]-N-1,2,4-thiadiazol-5-yl-1H-indazole-5-sulfonamide] | 1080 nM | 782 nM | 30 | 38
C[C@@H](c1ccccc1)n1ncc2cc(S(=O)(=O)Nc3ncns3)c(F)cc21 [Ex-11, 6-fluoro-1-[(1S)-1-phenylethyl]-N-1,2,4-thiadiazol-5-yl-1H-indazole-5-sulfonamide] | 1480 nM | 343 nM | 11 | 32
O=S(=O)(Nc1ncns1)c1cc2cnn(Cc3ccccc3)c2cc1F [Ex-12, 1-benzyl-6-fluoro-N-(1,2,4-thiadiazol-5-yl)-1H-indazole-5-sulfonamide] | 936 nM | 495 nM | 15 | 174
O=S(=O)(Nc1ncns1)c1ccc2c(cnn2Cc2ccc(Cl)cc2C2=CC3CCC(C2)N3)c1 (stereo not shown) [Ex-21, 1-[2-(8-azabicyclo[3.2.1]oct-2-en-3-yl)-4-chlorobenzyl]-N-1,2,4-thiadiazol-5-yl-1H-indazole-5-sulfonamide] | 1260 nM |  | 26 | 

Further lines, with some results ahead:

IC50 [2] | IC50 [4] | SMILES | Ratio 1.5:1.7 = Nav 1.5 potency (nM)/Nav1.7 potency (nM) [1] | Ratio 1.5:1.7 = Nav 1.5 potency (nM)/Nav1.7 potency (nM) [3]
24 nM | 21 nM | NC1CCc2cccc(Cn3ncc4cc(S(=O)(=O)Nc5ncns5)c(F)cc43)c2C1 (single isomer, unassigned) [Ex-14, (S or R)-1-((7-amino-5,6,7,8-tetrahydronaphthalen-1-yl)methyl)-6-fluoro-N-(1,2,4-thiadiazol-5-yl)-1H-indazole-5-sulfonamide] | 1394 | 1480
159 nM | 127 nM | NC/C=C/c1ccccc1Cn1ncc2cc(S(=O)(=O)Nc3ncns3)ccc21 [Ex-15, 1-{2-[(1E)-3-aminoprop-1-en-1-yl]benzyl}-N-1,2,4-thiadiazol-5-yl-1H-indazole-5-sulfonamide] | 207 | 237
960 nM |  | CN(C)CCNC(=O)c1cccc(-c2cc(Cl)ccc2Cn2ncc3cc(S(=O)(=O)Nc4ncns4)ccc32)c1 [Ex-20, 5′-chloro-N-[2-(dimethylamino)ethyl]-2′-{[5-(1,2,4-thiadiazol-5-ylsulfamoyl)-1H-indazol-1-yl]methyl}biphenyl-3-carboxamide] | 34 | 
 | 58 nM | Cc1cc2c(cnn2[C@H](C)c2cccc3c2CNCC3)cc1S(=O)(=O)Nc1cccc(F)n1 [Ex-60, N-(6-fluoropyridin-2-yl)-6-methyl-1-[(1R)-1-(1,2,3,4-tetrahydroisoquinolin-8-yl)ethyl]-1H-indazole-5-sulfonamide] |  | 457
 | 61 nM | Cc1cc2c(cnn2Cc2cccc3c2CC(N)CC3)cc1S(=O)(=O)Nc1cccc(F)n1 (stereo not shown) [Ex-61, 1-[(7-amino-5,6,7,8-tetrahydronaphthalen-1-yl)methyl]-N-(6-fluoropyridin-2-yl)-6-methyl-1H-indazole-5-sulfonamide] |  | 171
 | 23 nM | Cc1cc2c(cnn2Cc2cccc3c2CC(N)CC3)cc1S(=O)(=O)Nc1nccs1 (stereo not shown) [Ex-62, 1-[(7-amino-5,6,7,8-tetrahydronaphthalen-1-yl)methyl]-6-methyl-N-1,3-thiazol-2-yl-1H-indazole-5-sulfonamide] |  | 762
1720 nM |  | NC/C=C/c1ccccc1Cn1ncc2cc(S(=O)(=O)Nc3ncns3)cc(Cl)c21 [Ex-63, 1-{2-[(1E)-3-aminoprop-1-en-1-yl]benzyl}-7-chloro-N-1,2,4-thiadiazol-5-yl-1H-indazole-5-sulfonamide] | > 19 | 
